# Results as given in patent US20180136198A1, “SYNAPTIC VESICLE CYCLING ASSAYS AND SYSTEMS” (priority 2008, published 2018).
# Columns and labels:
# Assay type in all cases: cell-based
# [1] = system: rat embryonic cortical neurons; test: synaptopHluorin fluorescence at whole-well level, Zeiss Axiovert Z1 inverted epifluorescence microscope
# Source text: By introduction into a high percentage of neurons plated at high density within a well, synaptopHluorins were used to measure synaptic vesicle cycling at the whole-well, population level. One way synaptopHluorin was introduced into neurons was by viral infection. Viral delivery of synaptopHluorin was used to validate the ability to measure the synaptic vesicle cycle at the population level. Adeno-associated virus (MOI=1000) was used to deliver synaptopHluorin into rat embryonic cortical neurons plated in 96-well optically-clear plastic-bottomed plates (Nunc) at 11 days in vitro. At 21 days in vitro, neurons were imaged on a Zeiss Axiovert Z1 inverted epifluoresence microscope using low magnification optics (10×, 0.45 NA objective) insufficient to resolve individual synapses. Neurons in the presence or absence of external Ca^++ were treated with ionomycin, a calcium ionophore that triggers synaptic vesicle exocytosis and the resulting fluorescence of synaptopHluorin.
# [2] = system: Primary rat neuronal cultures; test: synaptopHluorin fluorescence in 96-well plates on the plate::vision plate reader; conditions: Tyrode's solution, read every 2 seconds for 1 minute
# Procedure: The plate::vision plate reader was evaluated for its ability to record the synaptic vesicle cycle in multiple wells in parallel. Primary rat neuronal cultures in 96-well plates were infected with the synaptopHluorin adeno-associated virus at 12 days in vitro. Culture medium was replaced with Tyrode's solution plus or minus external Ca^++. A baseline recording of fluorescence was measured in the entire plate on the plate::vision plate reader. Then, ionomycin was added to all wells, and fluorescence changes were measured every 2 seconds for 1 minute. […] These changes were similar to those observed when a similar experiment was performed on the Zeiss inverted epifluorescence microscope.
# [3] = system: rat embryonic cortical neurons; test: sypHy fluorescence (synaptic vesicle exocytosis) on Fluoroskan Ascent FL plate reader; conditions: 10 uM; GFP-fluorescence recorded at 5 Hz; 33 DIV
# Procedure: It was determined that a Fluoroskan Ascent FL plate reader is capable of measuring aspects of synaptic vesicle cycling, e.g., exocytosis, in neuronal cells expressing a synaptophysin-pHluorin reporter. Rat embryonic cortical neurons were cultured in Greiner uClear 96-well plates. At 7 DIV, cultures were infected with sypHy-AAV. At 33 DIV, culture media was replaced with assay buffer, the plate was loaded onto the Fluoroskan Ascent FL plate reader, and GFP-fluorescence was recorded at 5 Hz. This plate reader uses a photomultiplier tube (PMT) to measure the fluorescence levels in a single well at a time. A baseline fluorescence level was determined, ionomycin (10 uM) was added to induce synaptic vesicle exocytosis, and the resulting change in fluorescence was measured on by plate reader. […] (FIG. 27.)
smiles,measurement,setting,value
C[C@H](CCC(=O)O)C[C@H](C)C[C@H](C)C(=O)/C=C(\O)[C@H](C)C[C@H](C)C/C=C/[C@@H](C)[C@@H](O)[C@@H](C)[C@@H](O)C[C@@H]1CC[C@@](C)([C@H]2CC[C@@](C)([C@@H](C)O)O2)O1 [ionomycin],increase in synaptopHluorin signal,[1]; in the absence of external Ca++,about 3%
same,increase in synaptopHluorin signal,[1]; in the presence of external Ca++,approximately 20%
same,increase in fluorescence,[2]; absence of Ca++,< 5%
same,increase in fluorescence,[2]; in the presence of Ca++,about 20%
same,increase in fluorescence intensity,[3],~15%
